Data from patent US8906829B2, “Synergistic algicidal compositions including hydrazone derivatives and copper” (Dow AgroSciences LLC, priority 2010, dated 2014).

What was measured:
[1] = tested on: Synechocystis sp. strain 6803; test: Effect of copper on activity of hydrazones: in vitro growth inhibition of Synechocystis in BG-11 Cu minus / Cu plus medium (Example 11); assay type: cell-based; details: 72 h; for % Inhn. Plus Copper Observed: BG-11 Cu plus medium
Method: In vitro toxicity assays against the cyanobacterium (blue-green alga) Synechocystis sp. strain 6803 were conducted using BG-11 medium except that copper micronutrient, normally included as CuSO4.5H2O, was omitted. The medium, termed BG-11 Cu minus, was prepared by dissolving 1.5 g NaNO3, 40 mg K2HPO4, 6 mg citric acid, 1 mg Na2EDTA and 20 mg Na2CO3 in 1 liter of milli Q water and treating the solution with 0.5 g Chelex 100 resin (Bio-Rad Analytical grade, 50-100 mesh, sodium form, cat#142-2822) by stifling at room temperature for 1 h. 900 mL were decanted and 67.5 mg MgSO4.7H2O, 32.4 mg […], 5.4 mg ferric ammonium citrate and 0.9 mL trace metal mix A5 without copper (2.86 g H3BO3, 1.81 g MnCl2.4H2O, 222 mg ZnSO4.7H2O, 390 mg Na2MoO4.2H2O and Co(NO3)2.6H2O in 1 L Milli Q water) was added. The pH was adjusted to 7.1 and the medium was filter-sterilized. Medium containing copper (BG-11 Cu plus) was prepared by adding CuCl2.2H2O to the BG-11 Cu minus medium at 0.2 μM. Test compounds were dissolved in dimethylsulfoxide (DMSO) at 2 mg/mL then appropriate dilutions in BG-11 Cu minus and BG-11 Cu plus media were prepared in sterilized microcentrifuge tubes. 100 μL aliquots were dispensed into flat-bottomed 96-well microtiter plates. Synechocystis was maintained under 24 h of light on BG-11 agar plates at 27° C. A loopful of cells was added to 50 mL of BG-11 Cu minus growth medium and the culture was incubated with shaking at 200 rpm at 27° C. for 24 h. The culture (10 to 20 mL aliquot) was centrifuged in a bench centrifuge at 2400 rpm for 2 min. The resulting cell pellet was resuspended in 5 mL sterile milli Q water (which had been treated with Chelex 100 resin using 0.5 g resin per liter of water by stirring at room temperature for 1 h), and recentrifuged. The cells were resuspended in BG-11 Cu minus medium, and the suspension adjusted to 4×10^5 spores per mL. Microtiter plates containing compounds as described above were inoculated with 100 μL of this cell suspension and the plates incubated at 27° C. for 72 h before assessing algal growth by measuring light scattering in a NepheloStar plate reader. Growth inhibition was determined by comparing growth in the presence of test compound with growth in control wells lacking test compound. Results for growth inhibition by test compounds in BG-11 Cu plus medium (% Inhn Plus Copper Observed) were compared with predicted values (% Inhn Plus Copper Predicted) that were calculated using the formula set forth by S. R. Colby in Weeds 1967, 15, 20-22 based on-results obtained for the same compounds in BG-11 Cu minus medium (% Inhn Minus Copper Observed) and the inhibition attributed to copper chloride alone, as determined by comparing growth in copper-minus and copper-plus media without any test compound across experiments. Results illustrate that hydrazones and copper produce a synergistic algicidal effect towards Synechocystis.

C. reinhardtii CC-1928 = test: Effect of copper on activity of hydrazones: in vitro growth inhibition of C. reinhardtii in TAP Cu minus / TAP Cu plus medium (Example 10); assay type: cell-based, Chlamydomonas reinhardtii; details: test compound 1 μg/mL, 48 h; for inhibition of growth at 1 µg/mL: Chlamydomonas reinhardtii, TAP Cu minus medium, read-out: % Inhn. Minus Copper Observed; for % Inhn. Plus Copper Observed: TAP Cu plus medium (CuCl2)
Method: In vitro toxicity assays against C. reinhardtii CC-1928 (wild type mt+137c green in dark subclone) obtained from the Chlamydomonas Resource Center at Duke University were conducted using TAP liquid growth medium described by Gorman and Levine Proc. Natl. Acad. Sci. USA 1965, 54, 1665-1669 except that CuSO4.5H2O, normally included as a component of Hutner's trace element stock solution (Hutner et al. Proc. Am. Philos. Soc. 1950, 94, 152-170), was omitted. The TAP medium lacking Cu (TAP Cu minus) was prepared by adding 400 mg NH4Cl, 10 mL of 100× Tris-Acetate (242 g Tris-base and 100 mL glacial acetic acid in 1000 mL milli Q water), and 8.3 mL of 120.5× phosphate buffer (14.34 g K2HPO4 and 7.26 g KH2PO4 in 1000 mL milli Q water) to milli Q water to make a total volume of 1 liter. The medium was treated with 0.5 g Chelex 100 resin (Bio-Rad Analytical grade, 50-100 mesh, sodium form, cat#142-2822) by stirring at room temperature for 1 hour. 900 mL were decanted and 45.9 mg of CaCl2.2H2O, 90 mg of MgSO4.7H2O and 0.9 mL Hutner's trace elements lacking CuSO4.5H2O were added and the solution was filter-sterilized. Medium containing copper (TAP Cu plus) was prepared by adding CuCl2.2H2O to the TAP Cu minus medium at 20 μM. Test compounds were dissolved in dimethylsulfoxide (DMSO) at 2 mg/mL then dilutions in TAP Cu minus and TAP Cu plus media were prepared in sterilized microcentrifuge tubes at 2 μg/mL. 100 μL aliquots of diluted compound were dispensed into flat-bottomed 96-well microtiter plates. C. reinhardtii was maintained under 12 h of light on TAP agar plates at 18° C. A loopful of cells was added to 50 mL of TAP Cu minus medium and the culture incubated with shaking at 200 rpm at 27° C. for 24 h. The culture (10 to 20 mL aliquot) was centrifuged in a bench centrifuge at 2000 rpm for 2 min. The resulting cell pellet was resuspended in 5 mL sterile milli Q water (which had been treated with Chelex 100 resin using 0.5 g resin per liter of water by stirring at room temperature for 1 h), and recentrifuged. The cells were resuspended in TAP Cu minus medium, and the suspension adjusted to 2×10^5 spores per mL. Microtiter plates containing compounds as described above were inoculated with 100 μL of this cell suspension and the plates incubated at 27° C. for 48 h before assessing algal growth by measuring light scattering in a NepheloStar plate-reader. Growth inhibition was determined by comparing growth in the presence of test compound with growth in control wells lacking test compound. Results for growth inhibition by test compounds at 1 μg/mL in TAP Cu plus medium (% Inhn Plus Copper Observed) were compared with predicted values (% Inhn Plus Copper Predicted) that were calculated using the formula set forth by S. R. Colby in Weeds 1967, 15, 20-22 based on results obtained for the same compounds in TAP Cu minus medium (% Inhn Minus Copper Observed). […] Results illustrate that hydrazones and copper produce a synergistic algicidal effect towards C. reinhardtii.

[2] = Synechocystis, Test Concn. 0.00625 μg/mL, BG-11 Cu minus medium, read-out: % Inhn. Minus Copper Observed
[3] = Synechocystis, Test Concn. 0.05 μg/mL, BG-11 Cu minus medium, read-out: % Inhn. Minus Copper Observed

O=C(N/N=C/c1cc(Cl)cc(Br)c1O)c1cccc(Br)c1 [Compound 17]
inhibition of growth at 0.00625 µg/mL [1, 2]: 59% | % Inhn. Plus Copper Observed ([1]; Test Concn. 0.00625 μg/mL): 72% | inhibition of growth at 1 µg/mL (C. reinhardtii CC-1928): 32% | % Inhn. Plus Copper Observed (C. reinhardtii CC-1928): 83%

Cc1ccc(C(=O)N/N=C/c2cccc(Cl)c2O)c(O)c1 [Compound 55]
inhibition of growth at 0.05 µg/mL [1, 3]: 68% | % Inhn. Plus Copper Observed ([1]; Test Concn. 0.05 μg/mL): 92% | inhibition of growth at 1 µg/mL (C. reinhardtii CC-1928): -3% | % Inhn. Plus Copper Observed (C. reinhardtii CC-1928): 97% | melting point: 258 to 266 °C

COc1cc(Br)cc(/C=N/NC(=O)c2ccc(C)cc2)c1O [Compound 20]
inhibition of growth at 0.05 µg/mL [1, 3]: 9% | % Inhn. Plus Copper Observed ([1]; Test Concn. 0.05 μg/mL): 86% | inhibition of growth at 1 µg/mL (C. reinhardtii CC-1928): -6% | % Inhn. Plus Copper Observed (C. reinhardtii CC-1928): 94%

O=C(N/N=C/c1c(O)cccc1Cl)c1cccc(F)c1 [Compound 69]
melting point: 257 to 259 °C

O=C(N/N=C/c1cccc(Cl)c1O)c1ccc([N+](=O)[O-])cc1 [Compound 53]
inhibition of growth at 0.05 µg/mL [1, 3]: 45% | % Inhn. Plus Copper Observed ([1]; Test Concn. 0.05 μg/mL): 94% | inhibition of growth at 1 µg/mL (C. reinhardtii CC-1928): 8% | % Inhn. Plus Copper Observed (C. reinhardtii CC-1928): 88% | melting point: 284 to 287 °C

C/C(=N\NC(=O)c1ccccc1Br)c1cc(Cl)cc(Cl)c1O [Compound 5]
inhibition of growth at 0.05 µg/mL [1, 3]: -10% | % Inhn. Plus Copper Observed ([1]; Test Concn. 0.05 μg/mL): 91% | inhibition of growth at 1 µg/mL (C. reinhardtii CC-1928): 26% | % Inhn. Plus Copper Observed (C. reinhardtii CC-1928): 95% | melting point: 220 to 222 °C

O=C(N/N=C/c1cc(Br)cc(Br)c1O)c1ccccc1 [Compound 11]
inhibition of growth at 0.05 µg/mL [1, 3]: 50% | % Inhn. Plus Copper Observed ([1]; Test Concn. 0.05 μg/mL): 97% | inhibition of growth at 1 µg/mL (C. reinhardtii CC-1928): 31% | % Inhn. Plus Copper Observed (C. reinhardtii CC-1928): 96%

Cc1cccc(C(=O)N/N=C/c2cccc(C(F)(F)F)c2O)c1 [Compound 33]
inhibition of growth at 0.05 µg/mL [1, 3]: 29% | % Inhn. Plus Copper Observed ([1]; Test Concn. 0.05 μg/mL): 97% | inhibition of growth at 1 µg/mL (C. reinhardtii CC-1928): 21% | % Inhn. Plus Copper Observed (C. reinhardtii CC-1928): 97% | melting point: 188 to 190 °C

C/C(=N\NC(=O)Cc1ccccc1)c1cc(Cl)cc(Cl)c1O [Compound 13]
inhibition of growth at 0.05 µg/mL [1, 3]: 22% | % Inhn. Plus Copper Observed ([1]; Test Concn. 0.05 μg/mL): 96% | inhibition of growth at 1 µg/mL (C. reinhardtii CC-1928): 17% | % Inhn. Plus Copper Observed (C. reinhardtii CC-1928): 96% | melting point: 199 to 204 °C

O=C(N/N=C/c1c(Cl)ccc(Cl)c1O)c1ccccc1O [Compound 46]
inhibition of growth at 0.0125 µg/mL ([1]; Synechocystis, Test Concn. 0.0125 μg/mL, BG-11 Cu minus medium, read-out: % Inhn. Minus Copper Observed): 37% | % Inhn. Plus Copper Observed ([1]; Test Concn. 0.0125 μg/mL): 80% | inhibition of growth at 1 µg/mL (C. reinhardtii CC-1928): 0% | % Inhn. Plus Copper Observed (C. reinhardtii CC-1928): 92% | melting point: 260 to 262 °C

O=C(N/N=C/c1cc(Cl)cc(Cl)c1O)c1ccc(Br)cc1 [Compound 9]
inhibition of growth at 0.00625 µg/mL [1, 2]: 15% | % Inhn. Plus Copper Observed ([1]; Test Concn. 0.00625 μg/mL): 74% | inhibition of growth at 1 µg/mL (C. reinhardtii CC-1928): 7% | % Inhn. Plus Copper Observed (C. reinhardtii CC-1928): 90%

COc1cc(Br)cc(/C=N/NC(=O)c2cccc(Br)c2)c1O [Compound 19]
inhibition of growth at 0.05 µg/mL [1, 3]: -18% | % Inhn. Plus Copper Observed ([1]; Test Concn. 0.05 μg/mL): 43% | inhibition of growth at 1 µg/mL (C. reinhardtii CC-1928): 12% | % Inhn. Plus Copper Observed (C. reinhardtii CC-1928): 52%

O=C(N/N=C/c1cc(C(F)(F)F)ccc1O)c1ccccc1O [Compound 71]
melting point: 277 to 281 °C

Cc1ccccc1C(=O)N/N=C/c1cc(Cl)cc(Br)c1O [Compound 16]
inhibition of growth at 0.05 µg/mL [1, 3]: -5% | % Inhn. Plus Copper Observed ([1]; Test Concn. 0.05 μg/mL): 94% | inhibition of growth at 1 µg/mL (C. reinhardtii CC-1928): -3% | % Inhn. Plus Copper Observed (C. reinhardtii CC-1928): 95%

O=C(N/N=C/c1cc(Cl)cc(Cl)c1O)c1cccc(Cl)c1 [Compound 8]
inhibition of growth at 0.05 µg/mL [1, 3]: 62% | % Inhn. Plus Copper Observed ([1]; Test Concn. 0.05 μg/mL): 92% | inhibition of growth at 1 µg/mL (C. reinhardtii CC-1928): 15% | % Inhn. Plus Copper Observed (C. reinhardtii CC-1928): 92%

O=C(N/N=C/c1c(O)cccc1Cl)c1ccc([N+](=O)[O-])cc1 [Compound 49]
inhibition of growth at 1 µg/mL (C. reinhardtii CC-1928): 33% | % Inhn. Plus Copper Observed (C. reinhardtii CC-1928): 93% | melting point: > 300 °C

O=C(N/N=C/c1cc(Cl)ccc1O)c1ccccc1 [Compound 3]
inhibition of growth at 0.05 µg/mL [1, 3]: -17% | % Inhn. Plus Copper Observed ([1]; Test Concn. 0.05 μg/mL): 96% | inhibition of growth at 1 µg/mL (C. reinhardtii CC-1928): 25% | % Inhn. Plus Copper Observed (C. reinhardtii CC-1928): 62%

O=C(N/N=C/c1cc(Cl)cc(Cl)c1O)c1ccc(F)cc1 [Compound 4]
inhibition of growth at 0.05 µg/mL [1, 3]: -14% | % Inhn. Plus Copper Observed ([1]; Test Concn. 0.05 μg/mL): 96% | inhibition of growth at 1 µg/mL (C. reinhardtii CC-1928): 12% | % Inhn. Plus Copper Observed (C. reinhardtii CC-1928): 92%

O=C(N/N=C/c1c(O)cccc1Cl)c1ccc(Cl)cc1 [Compound 70, 4-chlorobenzoic acid [1-(2-chloro-6-hydroxyphenyl)-methylidene]-hydrazide]
melting point: 273 to 277 °C
